What was measured:
[1] = WO 2006/035525; cited from earlier work
MCP-1 = experiment: Production quantity of MCP-1 of epididymal adipose tissue from treated ZDF rats (culture supernatant, ELISA); format: in vivo, rat; settings: 45th day
Procedure: (§1) In Example 2, the same Test Sample and the negative sample as those prepared in Example 1 were used.
(§2) After 1 hour of the culture, culture supernatants were collected, and concentrations of TNF-α and MCP-1 in the culture supernatants were measured by ELISA method (Biosource).

[2] = system: ZDF (Zucker Diabetic Fatty) rats; settings: serum
Procedure: 3-O-β-D-glucopyranosyl-4-methylergost-7-en-3-ol produced in Preparation Example 1 was dissolved in DMSO, and the concentration was adjusted to 15 μg/ml with distilled water to thereby prepare Test Sample. In this case, the final DMSO concentration was adjusted to 0.2%. Furthermore, a solution without the test samples was prepared as a negative sample.
6-week-old male ZDF rats (purchased from Charles River Laboratories, Inc., USA) were preliminarily fed with a high-fat diet (Research Diet, Inc.) for 1 month. These rats were divided into groups, each consisting of 6 rats. Each of the groups of rats was orally administered with 1 ml per 400 g of body weight (37.5 μg/kg of body weight) of the Test Sample or the negative sample once a day everyday with a sonde. On the 45th day from the initiation of the administration of the samples, blood was collected from the rats under fasting, and the level of the free fatty acid in serum were measured by using NEFA C-test Wako (Wako Pure Chemical Industries, Ltd.).

[3] = system: ZDF (Zucker Diabetic Fatty) rats; experiment: Insulin tolerance test in ZDF rats; format: in vivo, rat; settings: 35th day; 37.5 μg/kg orally once a day; human insulin 10 U/Kg i.p. after 4 hours fasting; 15 to 60 minutes after insulin; FIG. 1
Procedure: In Example 3, the same Test Sample and the negative sample as those prepared in Examples 1 and 2 were used.
The semice were divided into groups, each consisting of 6 rats. […] In the present example, the insulin tolerance test was performed in such a manner that: the rats were fasted for 4 hours, and were then intraperitoneally administered with 10 U/Kg of body weight of a human insulin (Eli Lily and Company); and changes with time in blood glucose level were measured from the initiation of the administration of the insulin to after 60 minutes later.

TNF-α = experiment: Production quantity of TNF-α of epididymal adipose tissue from treated ZDF rats (culture supernatant, ELISA); format: in vivo, rat; settings: 45th day
Procedure: as §1, §2

[4] = adipose tissue, Tukey-Kramer's test
[5] = culture supernatant of epididymal fat tissue after 1 hour at 37° C., 37.5 μg/kg orally once a day

Which “effect on hemoglobin Alc level” value [1] does the source give for `CC1C(O[C@@H]2O[C@H](CO)[C@@H](O)[C@H](O)[C@H]2O)CC[C@@]2(C)C1CC=C1[C@@H]3CC[C@H]([C@H](C)CC[C@H](C)C(C)C)[C@@]3(C)CC[C@@H]12` (stereo partly drawn) [Test Sample, 3-O-β-D-glucopyranosyl-4-methylergost-7-en-3-ol] here?
Its value is “decreasing hemoglobin Alc level”.

And the effect on hyperglycemia [1]?
The effect on hyperglycemia was “improving hyperglycemia”.

What about the “inhibitory effect on the production of MCP-1 compared with negative sample group” value (MCP-1; [4]) of the same compound?
Its value is “significant inhibitory effects”.

And the MCP-1 (MCP-1; [5])?
The MCP-1 was 23.3 ± 3.6 pg/mL.

And the “free fatty acid levels compared with the group administered with the negative sample” value ([2]; 45th day, 37.5 μg/kg orally once a day, decreased to this % of negative sample group)?
Its value is 53%.

And the Free fatty acid ([2]; fasting, 45th day of administration, 37.5 μg/kg of body weight orally once a day, male ZDF rats on high-fat diet)?
Its Free fatty acid is 1.948 ± 0.648 mEq/l.

What about the “blood glucose level in insulin tolerance test compared with negative sample group” value [3] of the same compound?
Its value is “lower blood glucose levels”.

What about the “inhibitory effect on the production of TNF-α compared with negative sample group” value (TNF-α; [4]) of the same compound?
The value was “significant inhibitory effects”.

What about the TNF-α (TNF-α; [5]) of the same compound?
Its TNF-α is 117.4 ± 47.9 pg/mL.

Source: patent publication US8236769B2, “Agent for improving insulin resistance” (Morinaga Milk Industry Co., Ltd., priority 2005, dated 2012)
